One data set has as its system motility deficits. Kind of data set: Superiority model: mouse model of severe dopamine depletion. Type of data set: in vivo. From the text:
Both Apomorphine and L-DOPA stimulate D1 and D2-like dopamine receptors.

Another data set deals with Parkinson's disease. As to conditions: PD patients, intravenous (IV); cited from earlier work.
For data set [1] the following is noted: man, oral dosing; cited from earlier work.

Regarding `CN1CCc2cccc3c2[C@H]1Cc1ccc(O)c(O)c1-3` [Apomorphine], the “reversal of motility deficits / restoration of locomotion” value in the data set with motility deficits is listed as “able to reverse motility deficits”. Still for that read-out and setting: in the case of `N[C@@H](Cc1ccc(O)c(O)c1)C(=O)O` [L-DOPA, (levo)-3,4-dihydroxy phenylalanine] it was “able to reverse motility deficits”.

As to `CCCc1cc2c(s1)CN[C@@H]1CCc3cc(OC(C)=O)c(OC(C)=O)cc3[C@@H]21` [Adrogolide], the antiparkinson efficacy result in the data set on Parkinson's disease is recorded as “comparable to that of L-DOPA”. Further, the oral bioavailability in data set [1] is given as approximately 4%.

(Values after US20090124651A1, “CATECHOLAMINE DERIVATIVES AND PRODRUGS THEREOF” (H. LUNDBECK A/S, priority 2007, published 2009).)
